Tested on: adjuvant arthritis
Assay: adjuvant arthritis test
Assay type: in vivo, Wistar rats
Conditions: for Clinical scores (± S.E.): 50 μg/rat peptide in PBS intradermally at day 4, 5 and 6 after M. tuberculosis, score 0 to 18; for Incidence of arthritis (arthritic rats/total rats): 50 μg/rat at day 4, 5 and 6
Method: The peptide of the present invention is useful in the treatment of inflammatory pathologies of different kinds and origins, as it is shown by pharmacological test (adjuvant arthritis test) as follows.
15 Wistar rats (C. River; weight 130-140 g) and anaesthetized with CO2, were intradermically administered (injection at the base of the tie) with 0.1 ml of a suspension of 10 mg/ml of heat-inactivated M. tuberculosis (Strain C, DT and PN; Central Vet. Labs--GB), in sterile paraffin oil. The rats were divided in 3 groups of 5 animals each, and at day 4, 5 and 6 from the above treatment, following the same method for inducing arthritis, they were administered with 50 μg/rat dose of the peptide I in 100 μl of PBS for the first group, with PBS only for the second group, while the third group was not treated. The course of the arthritis was monitored according to the following scheme of clinical scores:
The scores range from 0 to 4 for each paw; furthermore one additional score is assigned if there are nodules on the tie, and another futher score is assigned if ears are involved, thereby the score is 0 at minimum and 18 at maximum.

## H-AKVNIKPLEDKILVQANEAETTTAS-OH [1-25]
Day 7
  Clinical scores (± S.E.): 0
Day 8
  Clinical scores (± S.E.): 0
Day 10
  Incidence of arthritis (arthritic rats/total rats): 1/5
  Clinical scores (± S.E.): 0.6 ± 0.6
Day 11
  Incidence of arthritis (arthritic rats/total rats): 5/5
  Clinical scores (± S.E.): 3.8 ± 0.4
Day 12
  Incidence of arthritis (arthritic rats/total rats): 5/5
  Clinical scores (± S.E.): 10.0 ± 0.7
Day 13
  Clinical scores (± S.E.): 12.6 ± 0.6

From patent US5856305A, “Peptides endowed with antiinflammatory activity” (Italfarmaco S.P.A., priority 1994, dated 1999)
